Data set [1] relates to CCRF S-180. Briefly: Antitumor activity against mouse CCRF S-180 cells implanted in Kunming mouse assessed as inhibition of tumor growth at 1 mg/kg,ip administered for 9 consecutive days. The format is functional.
Data set [2] relates to CCRF S-180. Briefly: Antitumor activity against mouse CCRF S-180 cells implanted in Kunming mouse assessed as inhibition of tumor growth at 4 mg/kg,ip administered for 9 consecutive days. The format is functional.
For data set [3], the system named is CCRF S-180. Briefly: Antitumor activity against mouse CCRF S-180 cells implanted in Kunming mouse assessed as inhibition of tumor growth at 2 mg/kg,ip administered for 9 consecutive days. Format: functional.
The next data set relates to Lung NSCLC-N6 cell-line. Briefly: Cytotoxicity against human Lung NSCLC-N6 cell-line by MTT colorimetric assay. Format: functional, cell-based. A general note: Formazan colour is commonly taken as a measure of viable cells.
Another data set relates to A2780. Briefly: Cytotoxicity against human A2780 cells incubated for 48 hrs. The following applies: A2780, 48 h. The format is functional, cell-based.
The subject of another data set is P388. Briefly: Cytotoxicity against mouse P388 cells by MTT colorimetric assay. Format: functional, cell-based.
The test system of the next data set is NCI-H292. Put plainly: Growth inhibition in human NCI-H292 cells incubated for 2 days by calcein-AM/pluronic F127 based fluorescence plate reader. As to conditions: NCI-H292, 48 h, time 2 day. The format is functional.
For data set [4], the system named is MCF7. Put plainly: Cytotoxicity against human MCF7 cells assessed as cell growth inhibition incubated for 144 hrs by MTT assay. The format is functional, cell-based. The following applies: MCF7, 144 h.
Data set [5] can be described thus: Cytotoxicity against mouse WEHI-231 cells assessed as cell growth inhibition incubated for 144 hrs by MTT assay. Format: functional, cell-based. The following applies: WEHI231, 144 h.
The next data set deals with COLO 205. Briefly: Antiproliferative activity against human COLO 205 cells assessed as cell growth inhibition. Format: functional, cell-based.
The subject of a further data set is HL-60. Briefly: Antiproliferative activity against human HL-60 cells assessed as cell growth inhibition. Format: functional, cell-based.
Data set [6] in a line: Cytotoxicity against mouse NIH/3T3 cells assessed as cell growth inhibition by alamar blue assay. Format: toxicity, cell-based, NIH3T3. A general note: The colour change of resazurin is a common sign of viable cells or microbes.
The subject of a further data set is MCF-10A. Briefly: Cytotoxicity against human MCF-10A cells assessed as cell growth inhibition by alamar blue assay. The format is functional, cell-based.
For data set [7], the system named is MCF7. Put plainly: Cytotoxicity against human MCF7 cells assessed as cell growth inhibition by MTT assay. The format is functional, cell-based.
In a further data set the test system is Jurkat. Put plainly: Cytotoxicity against human Jurkat cells assessed as cell growth inhibition by alamar blue assay. The format is functional, cell-based.
In a further data set the test system is HeLa. Put plainly: Cytotoxicity against human HeLa cells assessed as cell growth inhibition by alamar blue assay. The format is functional, cell-based.
In a further data set the test system is MDA-MB-231. Briefly: Cytotoxicity against human MDA-MB-231 cells assessed as cell growth inhibition by alamar blue assay. The format is functional, cell-based.
Another data set deals with U-937. Briefly: Cytotoxicity against human U-937 cells assessed as cell growth inhibition by alamar blue assay. The format is functional, cell-based.

In brackets after ≈: the same amount, converted by molar mass.

What is called inhibition in vivo is the percentage by which the read-out fell short of the control. Consider `CCCCCCCCCCCCCO[C@@H]1O[C@H](CO[C@@H]2O[C@H](CO)[C@@H](O[C@@H]3O[C@H](CO[C@@H]4O[C@H](CO)[C@@H](O)[C@H](O)[C@H]4O)[C@@H](O)[C@H](O[C@@H]4O[C@H](CO)[C@@H](O)[C@H](O)[C@H]4O)[C@H]3O)[C@H](O)[C@H]2O)[C@@H](O)[C@H](O[C@@H]2O[C@H](CO)[C@@H](O[C@@H]3O[C@H](CO)[C@H](O)[C@H](O)[C@H]3O)[C@H](O)[C@H]2O)[C@H]1O`, for which the inhibition in vivo at 1 mg/kg in the data set on CCRF S-180 [1] came to 39.1%. In the data set on CCRF S-180 [2], the inhibition in vivo at 4 mg/kg was 37.9%. For the same compound, the inhibition in vivo at 2 mg/kg with CCRF S-180 [3] stood at 39.9%.

The term IC50 denotes the concentration at which inhibition is half-maximal. In the case of `CO[C@@H]1/C=C(\C)C[C@H](/C=C/C#C[C@H]2C[C@@H]2Cl)OC(=O)[C@@H](C)[C@]2(O)C[C@H](O[C@@H]3O[C@@H](C)[C@H](O)[C@@](C)(O)[C@H]3OC)[C@@H](C)[C@@H](O2)[C@@H]1C`, the IC50 turned out to be 11.3 µg/mL (≈ 17.6 µM) in the data set with Lung NSCLC-N6 cell-line, 20200 nM in the data set on A2780 and 15.3 µg/mL (≈ 23.8 µM) in the data set with P388.

In general, GI50 refers to the concentration that inhibits growth by half. Regarding `COC[C@@H](C[C@H]1O[C@@](O)([C@H](O)[C@@H]2C[C@H](OC)CCC/C=C(C)/C=C/[C@@H](O[C@@H]3O[C@@H](C)[C@H](OC)[C@@H](O)[C@@H]3O)[C@H](C)/C=C(C)/C=C(C)/C=C(\C)C(=O)O2)[C@H](C)[C@@H](O)[C@H]1C)O[C@H]1C[C@](C)(O)[C@@H](O[C@H]2C[C@@H](OC)[C@H](O)[C@@H](C)O2)[C@H](C)O1`, in the data set with NCI-H292, the GI50 was 7 nM.

Turning to `COC[C@@H](C[C@H]1O[C@@](O)([C@H](O)[C@@H]2C[C@H](OC)[C@@H](O)CCC/C=C(C)\C=C\C[C@@H](O[C@H]3O[C@@H](C)[C@H](OC)[C@@H](O)[C@@H]3O)[C@H](C)/C=C(C)/C=C(C)/C=C(\C)C(=O)O2)[C@H](C)[C@@H](O)[C@H]1C)O[C@H]1C[C@](C)(O)[C@@H](O[C@H]2C[C@@H](OC)[C@H](O)[C@@H](C)O2)[C@H](C)O1`, the values for the IC50 (in the data set on MCF7 [4]; in [5]) were 30 nM and 20 nM, respectively.

As to `CN[C@H]1[C@@H](O)C[C@H](O[C@H]2C/C=C(\C)C/C(C)=C/C=C/CC[C@H](C)CNC(=O)/C=C/C=C/[C@@H]2C)O[C@@H]1C` [VICENISTATIN], the IC50 turned out to be 0.19 µg/mL (≈ 0.379 µM) with COLO 205 and 0.12 µg/mL (≈ 0.24 µM) in the data set with HL-60.

With `C/C=C(\C)C(=O)O[C@@H]1[C@@H](O)[C@H](O[C@H]2[C@H](O[C@H](CCC)CCCCC)O[C@H](C)[C@H](OC(C)=O)[C@@H]2O)O[C@H](COC(=O)CCC(=O)CCC)[C@H]1OC(=O)/C=C/c1ccccc1`, the IC50 in [6] worked out at 20.7 nM; in the data set with MCF-10A it was 11.8 nM; in the data set on MCF7 [7], 78.2 nM; with Jurkat, 22.5 nM; in the data set with HeLa, 30 nM; in the data set with MDA-MB-231, 18.8 nM. Also, the 50% inhibitory concentration (IC50) in the data set on U-937 is 17.1 nM.

The values above are taken from ChEMBL document CHEMBL5260828, “Amphiphilic glycoconjugates as potential anti-cancer chemotherapeutics” (Eur J Med Chem, 2018).
